“And” between values parts separate entries of the source, which are not always exact repeats. Equal entries are not always repeated.
Test system: CN0375-F725-PDC multi-cell spheroids, viability
Test: Anticancer human tumor CN0375-F725-PDC patient-derived colon carcinoma cell line growth inhibition [TAK]
Conditions: for viability, T/C: stronger effect = lower value
Procedure, shortened: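 Spheroids of 60% malignant cells, 25% HUVEC and 15% hMSC were exposed to targeted agents combined with TAK-243 or ipatasertib. Concentrations started at or near clinical Cmax (10 microM if unknown) and descended in half-log steps.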

[1] = curve of first compound, second compound 0.3 µM
[2] = curve of first compound, second compound 0.949 µM
[3] = curve of first compound, second compound 3 µM
[4] = curve of first compound, second compound 9.49 µM
[5] = curve of first compound, second compound 30 µM
[6] = second compound 0.3 µM, first compound 0.00316 µM
[7] = second compound 0.3 µM, first compound 0.01 µM
[8] = second compound 0.3 µM, first compound 0.0316 µM
[9] = second compound 0.3 µM, first compound 0.1 µM
[10] = second compound 0.949 µM, first compound 0.00316 µM
[11] = second compound 0.949 µM, first compound 0.01 µM
[12] = second compound 0.949 µM, first compound 0.0316 µM
[13] = second compound 0.949 µM, first compound 0.1 µM
[14] = second compound 3 µM, first compound 0.00316 µM
[15] = second compound 3 µM, first compound 0.01 µM
[16] = second compound 3 µM, first compound 0.0316 µM
[17] = second compound 3 µM, first compound 0.1 µM
[18] = second compound 9.49 µM, first compound 0.00316 µM
[19] = second compound 9.49 µM, first compound 0.01 µM
[20] = second compound 9.49 µM, first compound 0.0316 µM
[21] = second compound 9.49 µM, first compound 0.1 µM
[22] = second compound 30 µM, first compound 0.00316 µM
[23] = second compound 30 µM, first compound 0.01 µM
[24] = second compound 30 µM, first compound 0.0316 µM
[25] = second compound 30 µM, first compound 0.1 µM
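Also: spheroids exposed to drugs for seven days.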
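For viability, T/C in this document: 100% = DMSO vehicle control wells.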

SMILES: CC(=O)Nc1cccc(-n2c(=O)n(C3CC3)c(=O)c3c(Nc4ccc(I)cc4F)n(C)c(=O)c(C)c32)c1 + CC(C)NCC(C(=O)N1CCN(c2ncnc3c2C(C)CC3O)CC1)c1ccc(Cl)cc1
- IC50 [1]: 9.39 nM
- IC50 [2]: 5.66 nM
- IC50 [3]: 5.23 nM
- IC50 [4]: 4.87 nM
- IC50 [5]: 1.23 nM
- viability, T/C (second compound 0.3 µM, first compound 94.9 pM): 99.7%
- viability, T/C (second compound 0.3 µM, first compound 0.0003 µM): 93%
- viability, T/C (second compound 0.3 µM, first compound 0.000949 µM): 74.4%
- viability, T/C (second compound 0.3 µM, first compound 0.003 µM): 68.9%
- viability, T/C (second compound 0.3 µM, first compound 0.00949 µM): 48.6%
- viability, T/C (second compound 0.3 µM, first compound 0.03 µM): 33.7%
- viability, T/C (second compound 0.949 µM, first compound 94.9 pM): 92.4%
- viability, T/C (second compound 0.949 µM, first compound 0.0003 µM): 86.3%
- viability, T/C (second compound 0.949 µM, first compound 0.000949 µM): 75.5%
- viability, T/C (second compound 0.949 µM, first compound 0.003 µM): 57.1%
- viability, T/C (second compound 0.949 µM, first compound 0.00949 µM): 44.3%
- viability, T/C (second compound 0.949 µM, first compound 0.03 µM): 31.5%
- viability, T/C (second compound 3 µM, first compound 94.9 pM): 88.1%
- viability, T/C (second compound 3 µM, first compound 0.0003 µM): 83.5%
- viability, T/C (second compound 3 µM, first compound 0.000949 µM): 70%
- viability, T/C (second compound 3 µM, first compound 0.003 µM): 56.3%
- viability, T/C (second compound 3 µM, first compound 0.00949 µM): 43.6%
- viability, T/C (second compound 3 µM, first compound 0.03 µM): 30.1%
- viability, T/C (second compound 9.49 µM, first compound 94.9 pM): 81.4%
- viability, T/C (second compound 9.49 µM, first compound 0.0003 µM): 82.7%
- viability, T/C (second compound 9.49 µM, first compound 0.000949 µM): 69.9%
- viability, T/C (second compound 9.49 µM, first compound 0.003 µM): 57.4%
- viability, T/C (second compound 9.49 µM, first compound 0.00949 µM): 40.3%
- viability, T/C (second compound 9.49 µM, first compound 0.03 µM): 26.1%
- viability, T/C (second compound 30 µM, first compound 94.9 pM): 70%
- viability, T/C (second compound 30 µM, first compound 0.0003 µM): 67.5%
- viability, T/C (second compound 30 µM, first compound 0.000949 µM): 53%
- viability, T/C (second compound 30 µM, first compound 0.003 µM): 36.1%
- viability, T/C (second compound 30 µM, first compound 0.00949 µM): 24.1%
- viability, T/C (second compound 30 µM, first compound 0.03 µM): 13.6%

SMILES: COc1c(OCCCN2CCOCC2)ccc2c3n(c(=NC(=O)c4cnc(N)nc4)nc12)CCN3 + CC(C)NCC(C(=O)N1CCN(c2ncnc3c2C(C)CC3O)CC1)c1ccc(Cl)cc1
- IC50 [1]: 247 nM
- IC50 [2]: 211 nM
- IC50 [3]: 206 nM
- IC50 [4]: 154 nM
- IC50 [5]: 84.3 nM
- viability, T/C [6]: 103%
- viability, T/C [7]: 88.3%
- viability, T/C [8]: 81.1%
- viability, T/C [9]: 61.7%
- viability, T/C (second compound 0.3 µM, first compound 0.316 µM): 45.6%
- viability, T/C (second compound 0.3 µM, first compound 1 µM): 34.7%
- viability, T/C [10]: 100%
- viability, T/C [11]: 91.8%
- viability, T/C [12]: 80.1%
- viability, T/C [13]: 61.3%
- viability, T/C (second compound 0.949 µM, first compound 0.316 µM): 42.7%
- viability, T/C (second compound 0.949 µM, first compound 1 µM): 37.6%
- viability, T/C [14]: 98.8%
- viability, T/C [15]: 83.1%
- viability, T/C [16]: 78.5%
- viability, T/C [17]: 60.4%
- viability, T/C (second compound 3 µM, first compound 0.316 µM): 41.9%
- viability, T/C (second compound 3 µM, first compound 1 µM): 33%
- viability, T/C [18]: 92.7%
- viability, T/C [19]: 80.2%
- viability, T/C [20]: 69.9%
- viability, T/C [21]: 55.5%
- viability, T/C (second compound 9.49 µM, first compound 0.316 µM): 40.4%
- viability, T/C (second compound 9.49 µM, first compound 1 µM): 34.8%
- viability, T/C [22]: 76.2%
- viability, T/C [23]: 70.5%
- viability, T/C [24]: 62%
- viability, T/C [25]: 47.8%
- viability, T/C (second compound 30 µM, first compound 0.316 µM): 37.5%
- viability, T/C (second compound 30 µM, first compound 1 µM): 32.6%

SMILES: COc1c(OCCCN2CCOCC2)ccc2c3n(c(=NC(=O)c4cnc(N)nc4)nc12)CCN3
- viability, T/C (compound 0.00316 µM): 96.6% and 99.3%
- viability, T/C (compound 0.01 µM): 89.4% and 83.8%
- viability, T/C (compound 0.0316 µM): 78.5% and 68.5%
- viability, T/C (compound 0.1 µM): 63.8% and 55.3%
- viability, T/C (compound 0.316 µM): 42.5% and 39.9%
- viability, T/C (compound 1 µM): 34.6% and 29.2%
- IC50 (curve of compound): 220 nM and 144 nM

SMILES: CC(C)n1nc(-c2ccc3oc(N)nc3c2)c2c(N)ncnc21 + CC(C)NCC(C(=O)N1CCN(c2ncnc3c2C(C)CC3O)CC1)c1ccc(Cl)cc1
- IC50 [1]: > 100 nM
- IC50 [2]: > 100 nM
- IC50 [3]: > 100 nM
- IC50 [4]: 76.5 nM
- IC50 [5]: 24.3 nM
- viability, T/C (second compound 0.3 µM, first compound 0.000316 µM): 108%
- viability, T/C (second compound 0.3 µM, first compound 0.001 µM): 102%
- viability, T/C [6]: 95.8%
- viability, T/C [7]: 79.2%
- viability, T/C [8]: 71.1%
- viability, T/C [9]: 59.5%
- viability, T/C (second compound 0.949 µM, first compound 0.000316 µM): 96.9%
- viability, T/C (second compound 0.949 µM, first compound 0.001 µM): 99.5%
- viability, T/C [10]: 89.7%
- viability, T/C [11]: 80.3%
- viability, T/C [12]: 68.3%
- viability, T/C [13]: 57.5%
- viability, T/C (second compound 3 µM, first compound 0.000316 µM): 90.6%
- viability, T/C (second compound 3 µM, first compound 0.001 µM): 95.3%
- viability, T/C [14]: 87.4%
- viability, T/C [15]: 80.3%
- viability, T/C [16]: 65.9%
- viability, T/C [17]: 54.4%
- viability, T/C (second compound 9.49 µM, first compound 0.000316 µM): 84.9%
- viability, T/C (second compound 9.49 µM, first compound 0.001 µM): 91.4%
- viability, T/C [18]: 82.6%
- viability, T/C [19]: 77.3%
- viability, T/C [20]: 60.3%
- viability, T/C [21]: 46.9%
- viability, T/C (second compound 30 µM, first compound 0.000316 µM): 67.7%
- viability, T/C (second compound 30 µM, first compound 0.001 µM): 69.2%
- viability, T/C [22]: 75.6%
- viability, T/C [23]: 68.5%
- viability, T/C [24]: 44.4%
- viability, T/C [25]: 36.6%

SMILES: Cn1cnc2c(F)c(Nc3ccc(Br)cc3Cl)c(C(=O)NOCCO)cc21
- viability, T/C (compound 0.00949 µM): 89.7% and 95.5%
- viability, T/C (compound 0.03 µM): 79.8% and 82.5%
- viability, T/C (compound 0.0949 µM): 64.8% and 61.1%
- viability, T/C (compound 0.3 µM): 55.1% and 49.1%
- viability, T/C (compound 0.949 µM): 40.8% and 41.4%
- viability, T/C (compound 3 µM): 33.3% and 34.5%
- IC50 (curve of compound): 420 nM and 267 nM

Reference: PubChem BioAssay AID2060346 (Molecular Pharmacology Branch, DTP, NCI, 2025)
